Data on one molecule can be found in article PMC12067128, “Macrocyclization: Enhancing Drug-like Properties of Discoidin Domain Receptor Kinase Inhibitors” (ACS Medicinal Chemistry Letters, 2025).

Each structure is given as a SMILES string. Like-named read-outs stand apart in the source and are kept apart here.

The pKa is the pH at which an ionisable group is half protonated.

The data set in a line: pH-metric determination of pKa values (SiriusT3). It is filed as physicochemical. As to conditions: methanol/ISA water cosolvent mixtures (0.15 M KCl), MeOH:ISA water cosolvent, extrapolated to 0% cosolvent, 25 °C, n=4. The procedure: pH-metric determination of pKa values
Experimental pKa was determined by pH-metric approaches using SiriusT3 (PIon Inc. Ltd, Forrest Row, UK) instrument which integrates a dispenser module equipped with precision dispensers, 0.5 mL syringes, a multi-tip capillary bundle, a titrator module, a microstirrer with variable speed, a combined double junction Ag/AgCl pH and reference electrode and a fibre optics dip probe connected to a deuterium UV pulsed light source and a photodiode array (PDA) detector, acquiring spectra in the 200-700 nm wavelength range. SiriusT3 Control software v 1.1.3.0 was employed for acquisition, while Sirius T3 Refine software v. 1.1.3.0 was used for data analysis. The glass microelectrode was standardized by means of a strong acid-strong base titration (0.5N HCl vs. 0.5N KOH) in the pH range 2.0-12.0 at fixed temperature (25±0.5°C) and I = 0.15 M for KCl addition, in N2 atmosphere. […]
The original method was described in a previous paper.e Briefly, a HPLC Thermo Fisher Scientific Dionex Ultimate 3000 instrument equipped with a Low-Pressure Mixing Gradient Pump LPG-3400 SD, ACC-3000 autosampler with termostatable column compartment, a DAD-3000 RS Detector and Chromeleon Data System Version 7.2.10 was used. […] The dead time, t0, was determined by monitoring the baseline disturbance. […]

With `Cn1cc2c3nc(ncc31)Nc1cnn(c1)CCCNCCOc1ccc-2cc1` [Compound 5a], the pKa by setting is: (read-out: pKa (basic), amino group (propan-1-amine)) 8.2; (read-out: pKa (basic), pyrrolo-pyrimidine moiety) 4.35.
